Results on ten compounds are retold here after patent publication US20230069963A1, “PYRAZOLO[1,5-A]PYRIMIDINE MACROCYCLIC COMPOUND” (priority 2018, published 2023).

Molecules are shown by their SMILES. Where a name gives a salt, the structure may show the parent alone. Read-outs that look alike come from different tables or passages of the source.

Series [1] has as its system RSV ATCC VR-1540 (A2). In words: microbe, parasite or virus in culture. The settings on record: human respiratory syncytial virus, HEp-2, 96 h; Hep2 cells, incubated for 4 days, CPE detected with XTT assay (absorbance 450 nm); read-out: EC50 (nmol/L) against RSV A2 strain. Format: cell-based.
Series [2] has as its system F protein D486N mutant strain of RSV A2 strain. Format: cell-based, respiratory syncytial virus (RSV). The conditions noted are these: Hep2 cells, incubated for 4 days, CPE detected with XTT assay (absorbance 450 nm); read-out: EC50 (nmol/L) against F protein D486N mutant strain of RSV A2 strain.
Series [3] deals with D486N mutant strain. The settings on record: D486N mutant vs wild strain; cited from earlier work.
For series [4] the following is noted: amide bond, HATU, DMF.

As for `CN1CCNC(=O)COc2ccc(F)cc2C(=O)N2CCCCC2c2cc3nc(N4CCC(N)C4)cc1n3n2` [Example 1, (18aS)-13-[(3S)-3-aminopyrrolidin-1-yl]-2-fluoro-11-methyl-8,9,10,11,19,20,21,22-octahydro-18aH,24H-18,15-(metheno)pyrido[2,1-l]pyrimido[6,1-h][1,4,7,9,10,13]benzoxapentaazacyclohexadecine-7,24(6H)-dione], the EC50 in series [1] came out at 2.07 nmol/L; in series [2], 3.17 nmol/L.
For the compound `Cc1cn2nc([C@@H]3CCCCN3C(=O)c3cc(Cl)ccc3NS(C)(=O)=O)cc2nc1N1CC[C@H](N)C1` [GS-5806], in series [3], the “reduction of activity against the D486N mutant strain compared to the activity against the wild strain” value was “approximately 1000 times”.
Take `[2H]C([2H])([2H])c1ccc2c(c1)C(=O)N1CCCCC1c1cc3nc(C4CC(O)C4)cc(n3n1)N(C([2H])([2H])[2H])CCNC(=O)CO2` [Example 120, (18aS)-13-(trans-3-hydroxycyclobutyl)-2,1I-bis[trideuteriomethyl]-8,9,10,11,19,20,21,22-octahydro-18aH,24H-18,15-(metheno)pyrido[2,1-l]pyrimido[6,1-h][1,4,7,9,10,13]benzoxapentaazacyclohexadecine-7,24(6H)-dione]: the EC50 in series [1] stood at 0.45 nmol/L; in series [2], 0.639 nmol/L.
The like results for `Cc1ccc2c(c1)C(=O)N1CCCCC1c1cc3nc(C4CC(O)C4)cc(n3n1)N(C)CCNC(=O)CO2` [Example 117, (18aS)-13-(trans-3-hydroxycyclobutyl)-2,11-dimethyl-8,9,10,11,19,20,21,22-octahydro-18aH,24H-18,15-(metheno)pyrido[2,1-l]pyrimido[6,1-h][1,4,7,9,10,13]benzoxapentaazacyclohexadecine-7,24(6H)-dione] were, in that order, 0.773 nmol/L and 0.742 nmol/L.
Regarding `CN1CCNC(=O)COc2ccc(F)cc2C(=O)N2CCCC[C@H]2c2cc3nc(N4CCC4)cc1n3n2` [Example 2, (18aS)-13-(azetidin-1-yl)-2-fluoro-1-methyl-8,9,10,11,19,20,21,22-octahydro-18aH,24H-18,15-(metheno)pyrido[2,1-l]pyrimido[6,1-h][1,4,7,9,10,13]benzoxapentaazacyclohexadecine-7,24(6H)-dione], the EC50 was determined as 0.8 nmol/L in series [1] and 3.06 nmol/L in series [2].
With `Cc1ccc2c(c1)C(=O)N1CCCCC1c1cc3nc(N4CCC(N)C4)cc(n3n1)N(C)CCCCO2` [Example 244, (23aS)-18-[(3S)-3-aminopyrrolidin-1-yl]-8,16-dimethyl-1,3,4,13,14,15,16,23a-octahydro-2H, 6H,12H-23,20-(metheno)pyrido[2,1-k]pyrimido[6,1-g][1,6,8,9,12]benzoxatetraazacyclopentadecin-6-one hydrochloride], the EC50 in series [1] was found to be 4.01 nmol/L; in series [2], 7.34 nmol/L.
For `[2H]C([2H])([2H])N1CCNC(=O)COc2ccc(Cl)cc2C(=O)N2CCCCC2c2cc3nc(C4CC(O)C4)cc1n3n2` [Example 115, (18aS)-2-chloro-13-(trans-3-hydroxycyclobutyl)-11-trideuteriomethyl-8,9,10,11,19,20,21,22-octahydro-18aH,24H-18,15-(metheno)pyrido[2,1-l]pyrimido[6,1-h][1,4,7,9,10,13]benzoxapentaazacyclohexadecine-7,24(6H)-dione] the same measures were 0.344 nmol/L and 0.777 nmol/L.
Regarding `CN1CCCCS(=O)(=O)NC(C)(c2ccccc2)C(=O)N2CCCC[C@H]2c2cc3nc(Cl)cc1n3n2` (some centres unmarked), in series [4] (from CN(CCCCS(=O)(=O)NC(C)(C(=O)O)c1ccccc1)c1cc(Cl)nc2cc([C@@H]3CCCCN3)nn12, 10.2 mM, 70.0 °C, 2.5 h), the ring closure, yield of all isomers was found to be 80.4%.
For `CN1CCCNC(=O)COc2ccc(F)cc2C(=O)N2CCCC[C@H]2c2cc3nc(N4CC(N)C4)cc1n3n2` [Example 57, (19aS)-14-(3-aminoazetidin-1-yl)-2-fluoro-12-methyl-9,10,11,12,20,21,22,23-octahydro-6H, 19aH,25H-19,16-(metheno)pyrido[2,1-m]pyrimido[6,1-i][1,4,8,10,11,14]benzoxapentaazacycloheptadecine-7,25(8H)-dione], the EC50 in series [1] came out at 2.11 nmol/L; in series [2], 12.6 nmol/L.
In series [4] (from CN(CCNC(=O)COc1ccc(F)cc1C(=O)O)c1cc(Cl)nc2cc([C@@H]3CCCCN3)nn12, 10.0 mM, 25.0 °C, 15.0 h), `CN1CCNC(=O)COc2ccc(F)cc2C(=O)N2CCCC[C@H]2c2cc3nc(Cl)cc1n3n2` came in with a ring closure, yield of all isomers of 64.8%.
